Key:
Drosophila suzukii = experiment: Field test 2 with known 2-pentylfuran release rate: SWD infestation of field raspberries; type: in vivo; settings: 14.18 mg/h from two sachets, 48 h, N=15
Protocol: Field test 2 with known 2-pentylfuran release rate: We evaluated the effect of a known release rate of 2-pentylfuran on SWD infestation using 15 small plots of primocane raspberries (each plot=three 7 m rows of Heritage raspberries with 2.4 m between rows and with approximately 11 raspberries planted within each row) planted at different sites on research farms at Cornell AgriTech (plots separated by at least 0.5 km). The plantings were established in 2018 and the trial was conducted in the fall of 2019 as ripe raspberries were present along with high levels of SWD infestations in the area. At each plot we identified two fruiting canes (one for 2-pentylfuran treatment and one for control) that had large green fruit present separated by at least 3 m. After hand removal of any pink or ripe fruit, on 12 Sep. […] Ripe berries were removed from the canes, counted, weighed, placed in rearing cups (540 ml deli cups with approximately 1 cm of water agar at base with a perforated lid), and placed in a walk-in growth chamber (25° C., 55% r.h., 16:8 L:D) for 6 days at which time SWD were enumerated (mostly pupae, a few large larvae). Fruits from canes that were collected to estimate the background level of SWD infestation were evaluated for SWD infestation using the same method as for the canes used to test 2-pentylfuran. […]

[1] = system: Drosophila suzukii antennae; experiment: Coupled GC-EAD of bread dough headspace volatiles on SWD antennae; settings: adult female SWD antennae; adsorbent extract of bread dough; authentic standards 10 ng/μl
Protocol: Adsorbent Sampling from Bread Dough: The bread dough bait consisted of whole-wheat flour (17.25 g), sugar (2 g), dry active bread yeast (0.325 g), apple cider vinegar (1 ml), and water (25 ml) (Cha, D. H., et al., J. Econ. Entomol., 111: 645-652 (2018a)). Headspace volatiles were collected from 10 g bread dough ball placed in a screened specimen cup (130 ml) by using 2.41 closed volatile collection chambers (ARS, Inc., Gainesville, Fla.) with one air inlet adapter (7 mm ID) on the top and an outlet adapter (7 mm ID) on the bottom wall. Clean air from a filtering and delivery system (ARS Inc., Gainesville, Fla.) was pushed into the chamber at 0.7 L/min through the top inlet port, and volatiles from the dough were pushed out through volatile traps (activated charcoal adsorbent filters, ORBO™32-small, Supelco Inc., Bellefonte, Pa.) on the bottom of the chamber. An additional ORBO™ filter was used to ensure that no breakthrough occurred. For each sample of dough (2 dough samples total), adsorbent collections were made over a 2-day period at room temperature using the same volatile trap. Volatiles were eluted with 600 μl methylene chloride every 24 h from the filters of a given dough sample and combined across the total of the collecting days (from 2 dough samples). The combined extract was kept at −20° C. and subjected to as chromatography-electroantennographic detection (GC-EAD) and gas chromatography-mass spectrometry (GC-MS) analyses.
Coupled Gas Chromatographic-Electroantennographic Detection (GC-EAD): Coupled GC-EAD analysis was performed as described previously (Cha, D. H., J. Chem. Ecol., 34: 1180-1189 (2008); Cha, D. H., et al., J. Chem. Ecol., 38: 1419-1431 (2012)) using a Hewlett Packard 5890 Series II gas chromatograph equipped with either a non-polar DB-5 ms capillary column (30 m×0.25 mm ID, 0.25 μm film thickness; Agilent Technologies, Wilmington, Del.) or polar DB-WAXetr capillary column (30 m×0.25 mm ID, 0.25 μm film thickness; Agilent Technologies, Wilmington, Del.) in the splitless mode with 1 min sampling time. The oven temperature was programmed at 40° C. for 5 min, then increased by 15° C./min to 250° C., and held for 5 min. Injector and detector temperatures were set at 250° C. Nitrogen gas was the carrier at a flow of 2 ml/min. The column effluent was split 1:1 in the oven via a “Y” glass splitter (Supelco). One arm of the splitter led to the flame ionization detector (FID) (250° C.) and the other to the heated EAD port (250° C.). Whole head preparations were made of individual flies, age 5-9 day, for GC-EAD analysis (Cha et al. 2012). The head was separated from the body and its antennae positioned between two gold wire electrodes immersed in saline filled (Drosophila ringer solution; 46 mmol NaCl, 182 mmol KCl, 3 mmol CaCl2, and 10 mmol Tris HCl at pH 7.2) micropipettes in an acrylic holder. The antennal holder was placed inside a humidified condenser and maintained at 5° C. The output signal from the antenna was amplified by a customized high input impedance DC amplifier and recorded on an HP 3390A integrator.
Chemical Analysis: GC-MS was carried out with an Agilent 5975MS coupled with a Agilent 6890GC equipped with either a DB-5 ms capillary column (30 m×0.25 mm ID, 0.25 μm film thickness; Agilent Technologies, Wilmington, Del.) or DB-WAXetr capillary column (30 m×0.25 mm ID, 0.25 μm film thickness; Agilent Technologies, Wilmington, Del.). Helium was the carrier gas (1.0 ml/min constant flow). The GC temperature program was the same as used for the GC-EAD analyses. The MS transfer-line was held at 260° C., the MS source at 230° C., and the MS quad at 150° C. Mass spectra were taken in EI mode (at 70 eV) in the range from 40 m/z to 350 m/z with a scanning rate of 4.58 scan/s. GC-MS data were processed with the MDS-Chemstation software (Agilent Technologies). […]

With `CCCCCc1ccco1` [2-pentylfuran] the “reduction of SWD infestation per berry relative to control” value (Drosophila suzukii) was 56% and the “GC-EAD activity (antennal response)” value [1] was “active”.
